Data from PMC8333620, “Novel Tl(III) complexes containing pyridine-2,6-dicarboxylate derivatives with selective anticancer activity through inducing mitochondria-mediated apoptosis in A375 cells” (Scientific Reports, 2021).

Experiments:
[1] = system: A375 (a human melanoma) cell line; experiment: MTT cytotoxicity assay, A375; format: cell-based; settings: MTT, 48 h
Procedure: (§1) In this study, A375 (a human melanoma), HT29 (a human colon adenocarcinoma), and HFF (a human foreskin fibroblast) cell lines were provided from the Pasteur Institute (Iran). […] 10 mM stock solutions of compounds were prepared in DMSO and diluted in a fresh medium for use. The final concentration of DMSO never exceeded 0.1% (v/v). […] Then the medium was replaced with the respective medium containing ligands or Tl(III) complexes at different concentrations and incubated for 48 h. 10 μL of MTT was added and the medium was removed after 4 h of incubation. Finally, the violet crystal was solubilized in 100 μL DMSO and the absorbance was measured at 570 nm. IC50 value was measured by the standard method. The evaluations were carried out in triplicate[21],[23].

[2] = system: HFF (a human foreskin fibroblast) cell line; experiment: MTT cytotoxicity assay, HFF; format: cell-based; settings: MTT, 48 h; read-out: Cytotoxicity (IC50 ± SEM) against HFF
Procedure: as §1

[3] = Cyclic voltammetry of the complexes; format: physicochemical; settings: versus Ag/AgCl, KCl 0.1 M, GCE, scan rate 50 V/s
Excerpt: The electrochemical behavior of the complexes and also their ligands was studied by the cyclic voltammograms in the potential range of + 1.5 to –1.5 V and a scan rate of 50 Vs^–1. […] Redox couples at E^0ˊ 0.109, –0.051, and 0.244 V were obtained for C1, C2, and C3, respectively. The electrochemical oxidation of all three complexes seems be a one-stage process which includes irreversible couples with EC = –0.363 V, EA = 0.472 V for C1, EC = –0.271 V, EA = 0.220 V for C2 and EC = –0.337 V, EA = 0.581 V for C3. The peaks can be interpreted according to the Tl(III)/Tl(I) redox system for complexes. […] Therefore, redox couples are related to only the metal centers in complexes[27],[28].
Figure 4 Cyclic voltammogram of complexes c = 4 × 10^–3 mol/dm^3 in H2O medium, KCl (0.1 M) at GCE, scan rate 50 V/s.
Pyridine-2,6-dicarboxylic acid, 4-hydroxy-pyridine-2,6-dicarboxylic acid, 2-aminobenzimidazole, 4-aminopyridine, and thallium(III) nitrate trihydrate were purchased from the commercial sources and were used as received. The solvents were distilled for all synthetic works. Melting points were obtained on an Electrothermal IA-9100 apparatus. The FT-IR spectra were recorded on a Bruker Vector 22 FT-IR spectrometer using KBr pellets. Electronic spectra were recorded on Specord 210, Analytik Jena spectrophotometer in the range of 200–900 nm at room temperature. The ^1HNMR spectra were obtained from Bruker Ultrashield 400 spectrometer. Microanalyses (C, H, N) were measured with a Perkin-Elmer 2004(II) elemental analyzer. Electrochemical experiments were performed using a µAUTOLAB modular electrochemical system (ECO Chemie, Utrecht, the Netherlands) equipped with a PGSTAT type III module driven by GPES software in conjunction with a conventional three-electrode system an Ag/AgCl/3 M KCl and platinum wire as reference and counter electrode respectively and a GC as the working electrode.

[4] = system: A375 cells; experiment: Cellular uptake of Tl (ICP-MS), A375; format: cell-based, human; settings: 10 μM, 24 h
Procedure: A375 cells (1 × 10^7 cells) were treated with 10 μM C1–C3 and Tl(NO3)3.3H2O, respectively, for 24 h at 37 °C, 5% CO2, and 95% air. Cold PBS (phosphate buffer, pH = 7.4) was used for rinsing the cells three times after being collected. Cells were lysed in 1 M NaOH (1 mL) and diluted with 2% (v/v) HNO3 (5 mL) to determine whole-cell thallium content. The amount of thallium taken up by the cells was measured by ICP-MS. The instrument calibrates thallium using a standard solution containing 10, 50, 100, 500, and 1000 ppb thallium. This test was performed as explained on HFF cells treatment to C3[38].

[5] = system: HFF cells; experiment: Intracellular ROS (H2DCF-DA, flow cytometry), HFF; format: cell-based, human; settings: highest concentration, 24 h, compared with A375
Procedure: The generation of intracellular ROS was evaluated by reactive oxygen species assay kit. 2 mL of A375 cells (1 × 10^6 cells/mL) were induced with C1–C3 (at IC50 concentrations) at 37 °C for 24 h, serum-free medium washed twice. Then, the cells were incubated in 2 mL of serum-free medium containing H2DCF-DA (2 μM) for 30 min at 37 °C, serum-free medium washed twice. Cells were collected and assayed by flow cytometer with excitation wavelength at 489 nm and emission wavelength at 524 nm, and ten thousand events were collected. The DCF fluorescence peak for this cell sample was evaluated and data were analyzed by FlowJo software. This test was performed as explained on HFF cells treatment to C3 (at the highest concentration)[38].

[6] = system: HFF cells; experiment: Cell cycle analysis (PI, flow cytometry), HFF; format: cell-based, human; settings: highest concentration, 24 h
Procedure: A375 cells were seeded in 6-well plates with 1.5 × 10^6 cells /well and treated with the C1 and C3 at IC50 concentrations for 24 h. Cells were trypsinized, collected, and fixed in ice-cold 75% ethanol at − 20 °C overnight. After centrifugation, the fixed cells were rinsed with ice-cold phosphate-buffered saline (PBS) and resuspended in 0.5 mL of PBS containing 100 μg/mL DNase-free RNase A (Thermo Fisher Scientific Biosciences GmbH, St. Leon-Rot, Germany), 50 μg/mL propidium iodide (PI; Sigma Aldrich) in the dark for 30 min. The distribution of the cells in different phases of the cell cycle was determined using flow cytometry (Attune Nxt, Thermo Fisher Scientific-US) and FlowJo software v10.6.1 (https://www.flowjo.com/solutions/flowjo/downloads) was used to analyze the data. This test was performed as explained on HFF cells treatment to C3 (at the highest concentration)[62].

[7] = system: HFF cells; experiment: Mitochondrial membrane potential assay (JC-1), HFF; format: cell-based, human; settings: highest concentration, JC-1, 24 h
Procedure: Mitochondrial membrane potential analysis was determined by fluorescent dye JC-1 staining according to the manufacturer's protocol for the JC-1 assay kit. In brief, 2 mL of A375 cells (1 × 10^5 cells/mL) were treated with IC50 concentrations of C1 and C3 in 6-well plates for […]. Cells were harvested and washed three times with PBS after 24 h of incubation. Then cells were stained with 1 mL of JC-1 stock solution (10 mg/mL). Assays were initiated by incubating A375 cells with JC-1 for 30 min at 37 °C in the dark and detected with a fluorescence microscope. This test was performed as explained on HFF cells treatment to C3 (at the highest concentration).

(4-apyH)[Tl(pydc)(pydcH)2]0.5H2O [C3]
Viability inhibition, A375 ([1]; concentration not given): 69.62% | IC50 ([1]; read-out: Cytotoxicity (IC50 ± SEM) against A375): 7.23 ± 0.93 µM | IC50 [2]: > 500 µM | formal potential E0' ([3]; 4 × 10^–3 mol/dm^3 in H2O): 0.244 V | EA (anodic peak potential) ([3]; H2O): 0.581 V | EC (cathodic peak potential) ([3]; H2O): –0.337 V | permeation in A375 cells relative to normal (HFF) cells [4]: almost two times more than normal cells | production of ROS in HFF cells [5]: much less than what was produced in cancer cells of A375 | effect on cell cycle distribution in HFF cells [6]: does not have a remarkable effect on the cellular population in none of the phases | changes in MMP of HFF cells [7]: insignificant changes
